Key:
[1] = Enzymatic stability (kinetics of enzymatic hydrolysis) in rat plasma; type: in vitro ADME; conditions: for half-life at 3.8 µM: plasma (80%), pH 7.4, read-out: t1/2, enzymatic stability (converted)
Experimental: Enzymatic stability studies in rat and human plasma were performed for both the racemate and its enantiomers (Table 1). […] Considering the high stability of (±)-1 and its enantiomers in simulated physiological fluids and human plasma, these compounds could reach the target site without undergoing esterase metabolism.
Human plasma was purchased from 3H Biomedical (Uppsala, Sweden, Europe). Plasma aliquots (4 mL) were diluted with 0.02 M PBS (pH 7.4) to obtain a final volume of 5 mL containing 80% plasma. Studies were performed at 37 ± 0.5 °C using a shaking bath. Each experiment was started by adding a 10^–4 M drug stock solution (200 μL) to the preheated plasma. Hundred microliters of the thermostated medium was taken at various times, treated with cold methanol (500 μL) to precipitate plasma proteins, and centrifugated (5 min at 5000g). The supernatant was analyzed by HPLC to quantify the amount of the residual intact compound.

[2] = system: HREC stimulated with VEGF-A; assay: Crystal violet proliferation assay in HREC with or without VEGF-A; type: cell-based, human; conditions: 24 h; for effect of coincubation with PTZ on the compound's anti-VEGF-A activity on HREC proliferation: 5 μM compound + 2 μM PTZ (σ1 agonist); for effect of coincubation with PTZ on the compound's anti-VEGF-A activity on HREC proliferation / effect on VEGF-A-mediated HREC proliferation / effect of coincubation with AC927 on the compound's anti-VEGF-A activity on HREC proliferation: 80 ng/mL VEGF-A; for effect on VEGF-A-mediated HREC proliferation / effect on HREC proliferation under basal conditions: 5 μM; for effect on HREC proliferation under basal conditions: no VEGF-A; for effect of coincubation with AC927 on the compound's anti-VEGF-A activity on HREC proliferation: 5 μM compound + 2 μM AC927 (σ2 antagonist)
Experimental: As expected, VEGF-A exerted a proangiogenic effect by increasing cell proliferation by about 45% (at 24 h) with respect to the untreated control (Figure 2).
Control cells received an equal volume of vehicle (DMSO). At the end of the treatment, each well was washed with phosphate-buffered saline (PBS). Following this, the cells were fixed (in 4% paraformaldehyde) and stained with crystal violet solution (0.5% in 20% methanol for HREC or 1% aqueous solution for 92-1 cells). Subsequently, the plate was washed with water and left to dry. Crystal violet staining was evaluated by measuring the absorbance at 570 nm or 590 nm, after crystal violet extraction with 10% acetic acid (at room temperature for 10 min), with a microplate reader with the plate reader (Synergy 2-BioTek). For quantification, each assay was carried out in triplicate.

[3] = system: HREC stimulated with VEGF-A; assay: Wound healing assay (cell motility) in HREC stimulated by VEGF-A; type: cell-based, human; conditions: 48 h; for effect of AC927 cotreatment on the compound's inhibition of VEGF-A-mediated HREC motility: 5 μM compound + 2 μM AC927, 80 ng/mL VEGF-A; for effect of PTZ cotreatment on the compound's inhibition of VEGF-A-mediated HREC motility: 5 μM compound + 2 μM PTZ
Experimental: Unregulated stimulation of endothelial cell motility by VEGF-A underlies pathological angiogenesis.[41] Therefore, the effects of (±)-1, (+)-1, and (−)-1 on HREC motility stimulated by VEGF-A (80 ng/mL) were evaluated with the wound healing assays (Figures 3 and S3–S5). VEGF-A promoted HREC migration compared to untreated controls, inducing complete wound closures at 24 h (Figures S3–S5). […] Cotreatments with both AC927 and PTZ reduced (±)-1 and (+)-1 abilities to inhibit VEGF-A-mediated wound healing (Figure 3A,B). […] The representative images of HREC treated with VEGF-A and three prodrug derivatives after the scratch wound are shown in the Supporting Information (Figures S2–S4A).
(§1) HREC and 92-1 cells (2.5 × 10^5 cells/well) were seeded into 24 well plates and grown to confluency. Confluent cell monolayers were scratched with a p200 pipet tip to create 1 mm wide wounds. After washing (three times) with PBS to remove cell debris, wounded monolayers were incubated for 48 h (37 °C) in the complete medium in the presence of the indicated treatments. HREC were treated for 48 h in the presence of (±)-1, (+)-1, or (−)-1 with or without VEGF-A (80 ng/mL), AC927, and PTZ. 92-1 cells were treated for 48 h in the presence of (±)-1, (+)-1, or (−)-1. Wound closure was monitored by photographs at 40X using a phase-contrast microscope in each culture condition and at each time point (0, 24, and 48 h for HREC and 0, 6, 24, 30, and 48 h for 92-1 cells). The numbers of cells toward the wounds were counted using ImageJ software (ImageJ 1.50e, National Institutes of Health, NIH, Bethesda, MD) and were quantified by measuring the distance traveled over time by both cell fronts into the wound area.

[4] = system: HREC stimulated with VEGF-A; assay: Tube formation assay (Matrigel) in HREC stimulated with VEGF-A; type: cell-based, human; conditions: 24 h; for effect on VEGF-A-stimulated tube formation in HREC: 5 μM
Experimental: To further explore effects on angiogenesis, tube formation assays with HREC were evaluated. Following seeding onto basement membranelike Matrigel and stimulation for 24 h with VEGF-A (80 ng/mL), HREC organized into networks of tubular structures mimicking capillary formation in neoangiogenesis (Figure 4A).
The tube formation assay was analyzed in vitro in BD Matrigel, following the manufacturer’s instructions (BD, Bedford). In brief, 96-well plates were coated with 50 μL of Matrigel and allowed to solidify at 37 °C for 2 h. HREC were seeded at 1.5 × 10^4 cells/well in 100 μL of medium with (±)-1, (+)-1, or (−)-1 in the presence or absence of VEGF-A (80 ng/mL), AC927, and PTZ. After […] of incubation, tubelike structures were photographed at 10× magnification using an inverted microscope (Leica DM IRB) equipped with a CCD camera. Tube formations were quantified with ImageJ software (NIH, Bethesda, MD).

[5] = system: human 92-1 uveal melanoma cells; assay: Wound healing assay (cell migration) in human 92-1 uveal melanoma cells; type: cell-based; conditions: for effect on 92-1 cell migration: 3 μM, over 48 h time courses; for IC50: Homo sapiens, read-out: IC50, inhibition of 92-1 cell migration (wound healing)
Experimental: Finally, tumor cell migration was explored with the wound healing assay (Figure 7). (±)-1, (+)-1, and (−)-1 inhibited 92-1 cell migration over 48 h time courses (Figure 7A). […] In particular, the derivative (−)-1 exerted the highest antimigratory effects compared to the (+)-enantiomer (>10-fold) or the racemic mixture (±)-1 (>40-fold; Figure 7B). These actions closely mirror those observed in HREC migration (Figure 3) and could similarly reflect signaling through σ receptors by the HP-mII molecular component of the prodrugs, without VPA/HDAC involvement. Indeed, their differential potencies in motility inhibition (Figure 7) are aligned with increasing binding affinities for σ2 receptors from (±)-1 to (+)-1 and (−)-1 (Table 2), thus implicating the stereochemical diversity of HP-mII enantiomeric components as an underlying molecular mechanism able to regulate cell migration.
as §1

SMILES	Kobs, enzymatic stability [1]	half-life at 3.8 µM [1]	effect of coincubation with PTZ on the compound's anti-VEGF-A activity on HREC proliferation [2]	effect on VEGF-A-mediated HREC proliferation [2]	effect on HREC proliferation under basal conditions [2]	effect of AC927 cotreatment on the compound's inhibition of VEGF-A-mediated HREC motility [3]	effect of PTZ cotreatment on the compound's inhibition of VEGF-A-mediated HREC motility ([3]; 80 ng/mL VEGF-A)	effect of AC927 on the compound's action on VEGF-A-stimulated tube formation ([4]; 5 μM compound + 2 μM AC927, 80 ng/mL VEGF-A)	effect of PTZ on the compound's action on VEGF-A-stimulated tube formation ([4]; 5 μM compound + 2 μM PTZ, 80 ng/mL VEGF-A)	effect on VEGF-A-stimulated tube formation in HREC ([4]; 80 ng/mL VEGF-A)	effect on 92-1 cell migration [5]	IC50 ([5]; 48 h)	effect of coincubation with AC927 on the compound's anti-VEGF-A activity on HREC proliferation [2]	effect on VEGF-A-mediated HREC migration (wound healing) ([3]; 5 μM, 80 ng/mL VEGF-A)	antimigratory effect compared to the (+)-enantiomer ([5]; 92-1 cells, 48 h)	antimigratory effect compared to the racemic mixture (±)-1 ([5]; 92-1 cells, 48 h)
CCCC(CCC)C(=O)OC(CCCN1CCC(O)(c2ccc(Cl)cc2)CC1)c1ccc(F)cc1 (racemic) [(±)-1]	2.96 ± 0.01 h^–1	14 ± 0.18 min	partially counteracted	completely prevented	did not induce significant changes	significantly, but partially, opposed	significantly, but partially, opposed	partially and equally blocked	partially and equally blocked	blocked	inhibited	4220 nM	–	–	–	–
CCCC(CCC)C(=O)O[C@H](CCCN1CCC(O)(c2ccc(Cl)cc2)CC1)c1ccc(F)cc1 [(+)-1]	1.60 ± 0.005 h^–1	26.04 ± 0.12 min	did not alter	completely prevented	did not induce significant changes	reduced	significantly and completely blocked	–	–	blocked	inhibited	1150 nM	did not alter	–	–	–
CCCC(CCC)C(=O)O[C@@H](CCCN1CCC(O)(c2ccc(Cl)cc2)CC1)c1ccc(F)cc1 [(−)-1]	2.15 ± 0.03 h^–1	19.3 ± 0.6 min	did not alter	completely prevented	did not induce significant changes	prevented, in part	–	–	–	blocked	inhibited	90 nM	did not alter	highest reduction	> 10 fold	> 40 fold
